Assay results from patent US20250115926A1, “DEREGULATED DHS AND TYRA ENZYMES OF GRASSES ENABLE EFFICIENT PRODUCTION OF BOTH TYROSINE AND PHENYLALANINE” (Wisconsin Alumni Research Foundation, priority 2023, published 2025).
“And” between values parts separate entries of the source, which are not always exact repeats. Identical values can stand only once. Counter-ions that a name gives are not always drawn.

How the values were obtained:
[1] = biological target: T1, Sorghum bicolor SbDHS2, SEQ ID NO: 13, recombinant (Sorghum bicolor, UniProt C5YJQ4); experiment: DHS activity: effector inhibition; format: biochemical; conditions: effector 0.5 mM
T1 construct: pET28a (NdeI/BamHI), E. coli KRX
T1 sequence (C5YJQ4 42-508): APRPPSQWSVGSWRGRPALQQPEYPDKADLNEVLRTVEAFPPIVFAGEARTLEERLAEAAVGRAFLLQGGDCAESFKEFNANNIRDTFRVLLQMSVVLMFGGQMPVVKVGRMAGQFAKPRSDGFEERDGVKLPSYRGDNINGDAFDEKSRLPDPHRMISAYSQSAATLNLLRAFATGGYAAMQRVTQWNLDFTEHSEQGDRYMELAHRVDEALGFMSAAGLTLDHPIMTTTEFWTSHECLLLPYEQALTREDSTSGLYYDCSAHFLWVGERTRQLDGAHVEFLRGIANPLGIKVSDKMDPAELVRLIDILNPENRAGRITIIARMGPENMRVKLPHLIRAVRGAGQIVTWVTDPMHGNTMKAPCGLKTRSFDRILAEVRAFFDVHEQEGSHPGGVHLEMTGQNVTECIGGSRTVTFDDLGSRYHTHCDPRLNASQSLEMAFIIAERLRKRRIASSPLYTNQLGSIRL
Experimental: (§1) In contrast, BdDHS1b was not inhibited by arogenate even up to 2.5 mM. In fact, DHS1b activity increased in the presence of high concentrations of arogenate (FIG. 4F), likely due to high concentrations of contaminant NaCl present in the arogenate preparation (FIG. 16). Under acidic conditions, arogenate is known to undergo a spontaneous dehydration and decarboxylation into […]. […] Like in Brachypodium DHS enzymes, 0.5 mM arogenate inhibited SbDHS1a and SbDHS2 at ˜50% and ˜40%, respectively, but had no effect on SbDHS1b.

[2] = biological target: Sorghum bicolor SbDHS1b, SEQ ID NO: 11, recombinant (Sorghum bicolor, UniProt C5WXQ3); experiment: DHS activity: effector inhibition; format: biochemical; conditions: effector 0.5 mM
Sequence of Sorghum bicolor SbDHS1b, SEQ ID NO: 11, recombinant (C5WXQ3 48-551): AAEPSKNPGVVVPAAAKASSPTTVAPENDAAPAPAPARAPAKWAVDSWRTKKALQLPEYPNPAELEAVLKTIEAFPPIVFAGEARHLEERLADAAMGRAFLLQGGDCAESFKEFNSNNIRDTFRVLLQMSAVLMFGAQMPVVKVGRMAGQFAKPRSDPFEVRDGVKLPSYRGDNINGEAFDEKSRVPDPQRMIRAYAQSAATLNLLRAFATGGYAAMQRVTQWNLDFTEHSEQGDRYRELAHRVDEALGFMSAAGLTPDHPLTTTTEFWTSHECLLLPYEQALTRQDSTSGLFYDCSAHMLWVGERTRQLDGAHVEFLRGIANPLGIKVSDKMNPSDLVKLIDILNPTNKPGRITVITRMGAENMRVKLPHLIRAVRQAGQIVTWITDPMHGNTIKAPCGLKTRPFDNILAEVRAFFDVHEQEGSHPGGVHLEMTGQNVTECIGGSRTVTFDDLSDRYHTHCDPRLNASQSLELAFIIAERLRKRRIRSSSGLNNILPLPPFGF
Experimental: as §1

[3] = biological target: Sorghum bicolor SbDHS1a, SEQ ID NO: 9, recombinant (Sorghum bicolor, UniProt C5X2H5); experiment: DHS activity: effector inhibition; format: biochemical; conditions: effector 0.5 mM
Sequence of Sorghum bicolor SbDHS1a, SEQ ID NO: 9, recombinant (C5X2H5 46-540): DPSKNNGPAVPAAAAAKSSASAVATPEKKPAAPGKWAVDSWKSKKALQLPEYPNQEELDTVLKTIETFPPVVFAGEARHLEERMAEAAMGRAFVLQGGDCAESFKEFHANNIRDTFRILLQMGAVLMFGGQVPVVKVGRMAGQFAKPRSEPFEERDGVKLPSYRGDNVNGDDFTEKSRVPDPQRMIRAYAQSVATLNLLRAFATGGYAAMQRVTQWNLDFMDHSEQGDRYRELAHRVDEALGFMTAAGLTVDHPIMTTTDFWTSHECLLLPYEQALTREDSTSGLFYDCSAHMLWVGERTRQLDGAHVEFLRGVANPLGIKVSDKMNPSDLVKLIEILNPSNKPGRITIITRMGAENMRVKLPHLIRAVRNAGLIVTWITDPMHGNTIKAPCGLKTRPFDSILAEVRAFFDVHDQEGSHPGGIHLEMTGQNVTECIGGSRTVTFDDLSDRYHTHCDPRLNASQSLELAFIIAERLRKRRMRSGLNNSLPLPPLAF
Experimental: as §1

[4] = biological target: T2, Brachypodium distachyon BdTyrAnc (non-canonical TyrA), SEQ ID NO: 37, recombinant (Brachypodium distachyon, UniProt I1GYB3); experiment: TyrA arogenate dehydrogenase kinetics and tyrosine inhibition (340 nm); format: biochemical; conditions: arogenate and NADP^+
T2 construct: from cDNA
T2 sequence (I1GYB3 58-361): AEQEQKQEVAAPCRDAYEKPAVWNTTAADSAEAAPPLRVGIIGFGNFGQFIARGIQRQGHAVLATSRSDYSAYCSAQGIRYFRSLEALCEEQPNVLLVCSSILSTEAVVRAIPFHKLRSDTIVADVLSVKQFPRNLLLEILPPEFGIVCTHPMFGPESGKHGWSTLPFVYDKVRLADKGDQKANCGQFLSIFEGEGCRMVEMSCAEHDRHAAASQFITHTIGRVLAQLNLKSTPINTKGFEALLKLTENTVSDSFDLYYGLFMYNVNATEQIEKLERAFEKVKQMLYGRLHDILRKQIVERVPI
Excerpt: (§2) Next, to study the biochemical properties of grass TyrA enzymes, we generated and characterized recombinant purified TyrA proteins from Brachypodium (BdTyrA) and Sorghum (SbTyrA), two distantly related grass species^43, 44. Whereas TyrA enzymes from dicot plants are generally NADP^+-dependent arogenate dehydrogenases^20, 39, 45, except for NADP^+-prephenate dehydrogenases in the legume family^40, 46, previous reports on the substrate preference of grass TyrA enzymes are inconclusive^17, 19. […] NAD^+-prephenate dehydrogenase activity was absent in all cases, ruling out a significant contamination of the enzyme preparations with the TyrA enzyme from E. coli^47.48.

[5] = biological target: T3, Sorghum bicolor SbTyrAnc (non-canonical TyrA), SEQ ID NO: 43, recombinant (Sorghum bicolor, UniProt C5Z447); experiment: as above; format: biochemical; conditions: arogenate and NADP^+
T3 construct: from cDNA
T3 sequence (C5Z447 56-382): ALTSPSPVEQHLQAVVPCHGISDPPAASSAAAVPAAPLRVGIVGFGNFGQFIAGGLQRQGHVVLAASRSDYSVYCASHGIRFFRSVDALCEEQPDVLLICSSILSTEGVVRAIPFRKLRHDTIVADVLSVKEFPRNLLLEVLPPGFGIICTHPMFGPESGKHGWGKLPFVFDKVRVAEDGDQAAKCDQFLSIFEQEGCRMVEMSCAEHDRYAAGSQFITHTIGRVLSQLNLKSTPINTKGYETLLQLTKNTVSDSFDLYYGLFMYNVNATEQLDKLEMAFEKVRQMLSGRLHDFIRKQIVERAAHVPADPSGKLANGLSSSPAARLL
Excerpt: as §2

[6] = biological target: Brachypodium distachyon BdDHS1a, SEQ ID NO: 1, recombinant (Brachypodium distachyon, UniProt I1GSB3); experiment: DHS activity: kinetics and effector inhibition
Sequence of Brachypodium distachyon BdDHS1a, SEQ ID NO: 1, recombinant (I1GSB3 46-537): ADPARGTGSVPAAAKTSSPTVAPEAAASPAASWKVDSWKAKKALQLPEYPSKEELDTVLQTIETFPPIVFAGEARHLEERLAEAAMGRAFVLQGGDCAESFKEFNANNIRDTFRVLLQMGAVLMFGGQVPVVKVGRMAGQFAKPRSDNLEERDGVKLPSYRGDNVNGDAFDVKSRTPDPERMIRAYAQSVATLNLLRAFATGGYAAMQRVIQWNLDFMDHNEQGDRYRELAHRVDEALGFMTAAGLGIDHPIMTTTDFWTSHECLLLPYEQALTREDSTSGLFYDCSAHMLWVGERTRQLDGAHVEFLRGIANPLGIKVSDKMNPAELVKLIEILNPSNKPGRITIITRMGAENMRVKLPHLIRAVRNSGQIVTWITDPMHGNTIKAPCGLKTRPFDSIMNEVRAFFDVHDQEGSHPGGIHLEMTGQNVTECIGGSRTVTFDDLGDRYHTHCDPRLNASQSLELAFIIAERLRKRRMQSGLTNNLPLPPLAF
Excerpt: (§3) To examine their functional properties, the recombinant DHS enzymes of Brachypodium were produced and characterized in vitro.
(§4) As recent studies have shown that plant DHS enzymes are feedback-inhibited by multiple effector molecules^15, 16, we tested the effect of AAAs and another 14 related metabolites, including various intermediates of the shikimate pathway and the pathways downstream of AAAs, on Brachypodium DHS enzymes.
(§5) The DHS assay for UHPLC-MS quantification was set up using the same settings as described in the previous paragraph for the UV-based DHS assay, which guaranteed at least 10 minutes of reaction linearity. After a 10-minute incubation, 20 μL of the reactions (out of a total volume of 50 μL) were mixed into 80 μL of methanol, vortexed and transferred to vials for injection. Analysis of DAHP by UHPLC-MS was conducted using the same chromatographic settings as described for the UHPLC-MS analysis of soluble metabolites and compared with an authentic DAHP standard (Sta. Cruz biotechnology, cat. no. sc-216432).

[7] = biological target: Brachypodium distachyon BdDHS2, SEQ ID NO: 5, recombinant (Brachypodium distachyon, UniProt I1I809); experiment: DHS activity: kinetics and effector inhibition; format: biochemical
Sequence of Brachypodium distachyon BdDHS2, SEQ ID NO: 5, recombinant (I1I809 31-503): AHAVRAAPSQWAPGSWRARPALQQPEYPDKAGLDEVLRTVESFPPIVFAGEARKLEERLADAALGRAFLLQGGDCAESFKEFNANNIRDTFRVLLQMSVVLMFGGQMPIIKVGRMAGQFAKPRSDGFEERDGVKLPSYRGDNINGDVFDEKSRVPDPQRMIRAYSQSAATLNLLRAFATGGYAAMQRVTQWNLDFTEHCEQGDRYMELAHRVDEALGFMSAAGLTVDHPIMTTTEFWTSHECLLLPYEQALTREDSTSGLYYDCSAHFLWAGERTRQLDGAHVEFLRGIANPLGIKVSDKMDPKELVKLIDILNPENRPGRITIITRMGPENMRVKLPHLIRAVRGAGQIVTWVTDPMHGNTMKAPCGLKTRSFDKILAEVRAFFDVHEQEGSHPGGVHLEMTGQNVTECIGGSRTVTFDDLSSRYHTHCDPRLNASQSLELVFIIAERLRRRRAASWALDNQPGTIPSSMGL
Excerpt: as §3, §4, §5

[8] = biological target: Brachypodium distachyon BdDHS1b, SEQ ID NO: 3, recombinant (Brachypodium distachyon, UniProt I1H4W3); experiment: DHS activity: kinetics and effector inhibition; format: biochemical
Sequence of Brachypodium distachyon BdDHS1b, SEQ ID NO: 3, recombinant (I1H4W3 37-542): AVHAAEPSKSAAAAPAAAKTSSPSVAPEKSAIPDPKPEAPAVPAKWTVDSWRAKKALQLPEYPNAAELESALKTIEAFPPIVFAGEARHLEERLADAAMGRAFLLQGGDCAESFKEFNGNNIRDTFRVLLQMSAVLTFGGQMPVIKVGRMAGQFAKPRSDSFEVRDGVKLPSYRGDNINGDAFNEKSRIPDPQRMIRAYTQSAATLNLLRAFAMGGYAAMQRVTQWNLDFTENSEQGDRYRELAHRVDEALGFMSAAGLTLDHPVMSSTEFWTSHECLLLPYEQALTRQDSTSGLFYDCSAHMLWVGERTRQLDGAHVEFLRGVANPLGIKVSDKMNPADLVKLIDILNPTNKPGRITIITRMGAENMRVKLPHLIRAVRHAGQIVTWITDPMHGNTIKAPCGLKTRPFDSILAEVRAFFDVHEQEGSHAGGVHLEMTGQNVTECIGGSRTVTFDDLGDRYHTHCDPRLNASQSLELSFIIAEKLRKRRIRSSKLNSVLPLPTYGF
Excerpt: as §3, §4, §5

[9] = tested on: Brachypodium distachyon DHS enzymes (BdDHS1a, BdDHS1b, BdDHS2); experiment: DHS activity: kinetics and effector inhibition, three isoforms together; format: biochemical; conditions: arogenate treated with 1N HCl for 30 minutes (FIG. 16A)
Excerpt: as §3, §4, §5

[10] = biological target: Arabidopsis thaliana AtDHS2 (Arabidopsis thaliana, UniProt Q00218); experiment: DHS inhibition assay with hydrolyzed arogenate; format: biochemical; conditions: arogenate treated with 1N HCl for 30 minutes (FIG. 16A)
Sequence of Arabidopsis thaliana AtDHS2 (Q00218 2-507): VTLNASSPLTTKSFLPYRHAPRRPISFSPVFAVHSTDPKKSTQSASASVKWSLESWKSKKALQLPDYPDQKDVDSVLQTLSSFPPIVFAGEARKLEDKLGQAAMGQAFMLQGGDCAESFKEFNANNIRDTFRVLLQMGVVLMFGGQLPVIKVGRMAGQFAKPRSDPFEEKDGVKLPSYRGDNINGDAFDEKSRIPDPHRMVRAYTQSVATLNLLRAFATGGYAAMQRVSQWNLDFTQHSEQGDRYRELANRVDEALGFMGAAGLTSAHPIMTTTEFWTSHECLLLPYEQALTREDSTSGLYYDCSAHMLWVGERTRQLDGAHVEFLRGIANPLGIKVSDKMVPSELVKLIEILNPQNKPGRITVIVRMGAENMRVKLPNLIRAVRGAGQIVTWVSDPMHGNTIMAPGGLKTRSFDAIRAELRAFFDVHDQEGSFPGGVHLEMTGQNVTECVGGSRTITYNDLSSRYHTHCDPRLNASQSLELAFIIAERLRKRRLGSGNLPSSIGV

inhibition by hydrolyzed arogenate [9]	inhibition by hydrolyzed arogenate ([9]; listed as Arogenate that is hydrolyzed to phenylalanine)	inhibition by hydrolyzed arogenate [10]	SMILES	inhibition at 500 µM [1]	effect at 0.5 mM [2]	inhibition at 500 µM [3]	kcat/Km [4]	kcat/Km [5]	IC50 ([6]; IC50 (arogenate), 1.5 mM PEP, 2 mM E4P)	inhibition at 500 µM ([6]; read-out: inhibition at 0.5 mM)	IC50 ([7]; 1.5 mM PEP, 2 mM E4P, read-out: IC50 (arogenate))	mode of inhibition with respect to E4P ([7]; FIG. 18)	mode of inhibition with respect to PEP ([7]; FIG. 18)	inhibition at 500 µM ([7]; effector 0.5 mM, read-out: inhibition at 0.5 mM)	inhibition by arogenate up to 2.5 mM ([8]; even up to 2.5 mM)	IC50 ([8]; read-out: IC50 (arogenate))
			N[C@@H](CC1(C(=O)O)C=CC(O)C=C1)C(=O)O (stereo partly shown) [arogenate]	~40%	no effect	~50%	579600 ± 24300 M⁻¹ s⁻¹	337500 ± 19500 M⁻¹ s⁻¹	~285 µM and 285 µM	~50%	~91 µM and 91 µM	uncompetitive inhibition kinetics	mixed inhibition mechanism	> 75%	not inhibited	> 500 µM
did not inhibit	does not inhibit	does not inhibit	N[C@@H](Cc1ccccc1)C(=O)O [Arogenate incubated with HCl]													
